Measurements from patent US9988429B2, “Glucagon analogues” (Zealand Pharma A/S, priority 2013, dated 2018).
Starred links: 1 amine or outer side, 2 acyl side, 3 side chain; linkers in the order of their positions; H or OH if unused. Non-standard residues stand in square brackets, D forms with d. Residues, ends and D or L forms follow the SMILES beside them. Groups on a side chain read outwards from the residue. *: point of attachment. γGlu = O=C(O)[C@H](CCC(=O)[*:2])N[*:1]; Palmitoyl = CCCCCCCCCCCCCCCC(=O)*; Ac4c = NC1(C(=O)O)CCC1; Aib = CC(C)(N)C(=O)O

Columns and labels:
Assay type in all cases: cell-based
[1] = target: T1, human glucagon receptor (Glucagon-R) (Homo sapiens, UniProt P47871); test: Glucagon receptor efficacy assay (cAMP AlphaScreen, CHO cells); conditions: cAMP formation, CHO cells expressing human Glucagon-R; read-out: EC50 hGCGR CHO-K1
T1 construct: expressed in transfected cells
Experimental: The mammalian expression vectors encoding the Glucagon-R or the GLP-1-R were transfected into Chinese hamster ovary (CHO) cells by the Attractene method. Stably expressing clones were obtained by Zeocin selection (250 μg/mL) upon limited dilution of cells resistant to the selection pressure. […] One Glucagon-R expressing clone and one GLP-1-R expressing clone were chosen for compound profiling.
CHO cells expressing the human Glucagon-R, or human GLP-1-R were seeded 24 hours prior to the assay at 30,000 cells per well in 96-well microtiter plates in culture in 100 μl growth medium. On the day of analysis, growth medium was removed and the cells were washed once with 200 μl of assay buffer (Krebs-Ringer-buffer—KRBH). The buffer was removed and the cells were incubated for 15 min at room temperature in 10 μl KRBH (KRBH+10 mM HEPES, 5 mM NaHCO3, 0.1% (V/V) BSA) with 0.1 mM IBMX in deionized water containing increasing concentrations of test peptides. The reaction was stopped by the addition of lysis buffer (0.1% w/v BSA, 5 mM HEPES, 0.3% v/v Tween-20). After cell lysis for 10 min at room temperature, lysates were transferred to 384-well plates and 10 μl of acceptor/donorbead mixture as contained in the AlphaScreen™ cAMP Functional Assay Kit was added. After one hour of incubation at room temperature in the dark, the cAMP content was determined applying the AlphaScreen™ cAMP Functional Assay Kit from Perkin-Elmer according to manufacturer instructions. […] The GLP-1/glucagon ratio is calculated as defined earlier.

[2] = target: T2, human glucagon-like peptide 1 receptor (GLP-1R) (Homo sapiens, UniProt P43220); test: GLP-1 receptor efficacy assay (cAMP AlphaScreen, CHO cells); conditions: for Ratio GLP-1/Glucagon: EC50 [GLP-1R] / EC50 [Glucagon-R], human receptors in CHO-K1
T2 construct: expressed in transfected cells
Summary of the method: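 Stably transfected CHO clones expressing human receptor, stimulated 15 min at room temperature with increasing peptide concentrations in KRBH (10 mM HEPES, 5 mM NaHCO3, 0.1% BSA) plus 0.1 mM IBMX. Cells lysed, and cAMP quantified by AlphaScreen after 1 h bead incubation in the dark.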

[3] = target: T3, endogenous GLP-1 receptors (Mus musculus, UniProt O35659); test: Agonistic activity on endogenous GLP-1 receptor, cAMP in murine insulinoma cell line; conditions: intracellular cAMP
T3 construct: Agonistic activity of the test compounds on endogenous GLP-1 receptors; endogenous in cells
T3 sequence (O35659 22-463): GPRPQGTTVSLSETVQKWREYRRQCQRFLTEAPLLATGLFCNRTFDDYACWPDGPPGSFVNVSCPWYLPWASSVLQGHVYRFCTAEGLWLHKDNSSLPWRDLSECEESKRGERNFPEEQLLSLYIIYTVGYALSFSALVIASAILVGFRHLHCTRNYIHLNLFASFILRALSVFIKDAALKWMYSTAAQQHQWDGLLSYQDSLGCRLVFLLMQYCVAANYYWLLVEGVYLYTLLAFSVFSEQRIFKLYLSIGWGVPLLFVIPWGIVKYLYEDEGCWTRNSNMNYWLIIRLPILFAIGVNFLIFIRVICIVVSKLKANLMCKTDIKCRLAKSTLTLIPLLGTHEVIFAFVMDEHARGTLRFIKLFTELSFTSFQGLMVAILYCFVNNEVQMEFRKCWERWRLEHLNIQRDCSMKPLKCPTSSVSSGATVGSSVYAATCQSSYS
Experimental: Agonistic activity of the test compounds on endogenous GLP-1 receptors was determined using a murine insulinoma cell line. Intracellular cAMP was used as an indicator of receptor activation.
Cells were cultured for 24 h at a density of 10,000 cells/well in a 384-well plate. Medium was removed and 10 μL KRBH buffer (NaCl 130 mM, KCl 3.6 mM, NaH2PO4 0.5 mM, MgSO4 0.5 mM, CaCl2 1.5 mM) containing test compound or GLP-1 (at increasing concentrations from 0.1 pM to 100 nM) or solvent control (0.1% (v/v) DMSO) was added to the wells for 15 minutes at a temperature of 26° C.
The cellular cAMP content is measured using the AlphaScreen cAMP Functional Assay Kit (Perkin Elmer). Measurement was performed using the Envision (PerkinElmer) according to manufacturer's recommendations.
All measurements were performed in quadruplicate.
The resulting cAMP curves were plotted as absolute cAMP concentrations (nM) over log (test compound concentration) and analyzed using the curve fitting program XLfit.

T2 sequence (P43220 24-463): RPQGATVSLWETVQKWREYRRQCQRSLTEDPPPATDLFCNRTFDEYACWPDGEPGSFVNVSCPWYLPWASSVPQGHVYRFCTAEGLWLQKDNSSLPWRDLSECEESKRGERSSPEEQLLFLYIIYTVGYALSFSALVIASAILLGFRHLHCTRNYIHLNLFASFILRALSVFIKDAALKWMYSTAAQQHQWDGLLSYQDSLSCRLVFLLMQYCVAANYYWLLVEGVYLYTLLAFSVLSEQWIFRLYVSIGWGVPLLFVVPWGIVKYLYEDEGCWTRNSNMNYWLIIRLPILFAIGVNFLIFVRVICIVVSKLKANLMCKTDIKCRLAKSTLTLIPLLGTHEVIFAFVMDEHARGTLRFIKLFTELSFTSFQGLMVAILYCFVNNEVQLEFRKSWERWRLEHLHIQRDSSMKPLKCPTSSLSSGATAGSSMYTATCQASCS
T1 sequence (P47871 26-477): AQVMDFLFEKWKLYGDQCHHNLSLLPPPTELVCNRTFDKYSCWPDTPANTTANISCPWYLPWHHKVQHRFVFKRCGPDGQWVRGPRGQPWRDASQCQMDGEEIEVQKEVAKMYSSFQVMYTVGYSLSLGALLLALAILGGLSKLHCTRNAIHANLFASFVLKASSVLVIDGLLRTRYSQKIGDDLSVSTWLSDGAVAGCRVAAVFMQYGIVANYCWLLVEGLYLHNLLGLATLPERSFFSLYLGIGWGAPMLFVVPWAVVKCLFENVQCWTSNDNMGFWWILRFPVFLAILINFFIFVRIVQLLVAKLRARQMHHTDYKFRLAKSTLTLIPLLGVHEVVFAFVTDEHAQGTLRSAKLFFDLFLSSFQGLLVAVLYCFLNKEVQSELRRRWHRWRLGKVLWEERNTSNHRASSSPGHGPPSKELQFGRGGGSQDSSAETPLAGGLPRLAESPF

EC50 [1] [nM] | Ratio GLP-1/Glucagon [2] | EC50 [3] [nM] | EC50 ([2]; cAMP formation, CHO cells expressing human GLP-1-R, read-out: EC50 hGLP-1R CHO-K1) [nM] | SMILES
0.2 | 1.65 | 0.21 | – | CCCCCCCCCCCCCCCC(=O)N[C@@H](CCC(=O)NCCCC[C@H](NC(=O)[C@H](CO)NC(=O)[C@H](CC(=O)O)NC(=O)[C@H](CC(C)C)NC(=O)[C@H](Cc1ccc(O)cc1)NC(=O)[C@H](CCCCN)NC(=O)[C@H](CO)NC(=O)[C@H](Cc1ccc(O)cc1)NC(=O)[C@H](CC(=O)O)NC(=O)[C@H](CO)NC(=O)[C@@H](NC(=O)[C@H](Cc1ccccc1)NC(=O)[C@@H](NC(=O)CNC(=O)[C@H](Cc1c[nH]cn1)NC(=O)C1(NC(=O)[C@@H](N)Cc2c[nH]cn2)CCC1)[C@@H](C)O)[C@@H](C)O)C(=O)N[C@@H](C)C(=O)N[C@@H](C)C(=O)N[C@@H](Cc1c[nH]cn1)C(=O)N[C@@H](CC(=O)O)C(=O)N[C@@H](Cc1ccccc1)C(=O)N[C@H](C(=O)N[C@@H](CCC(=O)O)C(=O)N[C@@H](Cc1c[nH]c2ccccc12)C(=O)N[C@@H](CC(C)C)C(=O)N[C@@H](CC(C)C)C(=O)N[C@@H](CO)C(=O)N[C@@H](C)C(N)=O)C(C)C)C(=O)O [Compound 9] (H-H[Ac4c]HGTFTSDYSKYLDSK([γGlu-Palmitoyl])AAHDFVEWLLSA-NH2)
– | 3.38 | 0.21 | 0.27 | CCCCCCCCCCCCCCCC(=O)N[C@@H](CCC(=O)NCCCC[C@H](NC(=O)[C@H](CCC(=O)O)NC(=O)[C@H](CC(=O)O)NC(=O)[C@H](CC(C)C)NC(=O)[C@H](Cc1ccc(O)cc1)NC(=O)[C@H](CCCCN)NC(=O)[C@H](CO)NC(=O)[C@H](Cc1ccc(O)cc1)NC(=O)[C@H](CC(=O)O)NC(=O)[C@H](CO)NC(=O)[C@@H](NC(=O)[C@H](Cc1ccccc1)NC(=O)[C@@H](NC(=O)CNC(=O)[C@H](CCC(N)=O)NC(=O)C(C)(C)NC(=O)[C@@H](N)Cc1c[nH]cn1)[C@@H](C)O)[C@@H](C)O)C(=O)N[C@@H](C)C(=O)N[C@@H](C)C(=O)N[C@@H](CCCCN)C(=O)N[C@@H](CC(=O)O)C(=O)N[C@@H](Cc1ccccc1)C(=O)N[C@H](C(=O)N[C@@H](CCC(=O)O)C(=O)N[C@@H](Cc1c[nH]c2ccccc12)C(=O)N[C@@H](CC(C)C)C(=O)N[C@@H](CCC(=O)O)C(=O)N[C@@H](CCC(=O)O)C(=O)N[C@@H](CCC(=O)O)C(N)=O)[C@@H](C)CC)C(=O)O [Compound 17] (H-H[Aib]QGTFTSDYSKYLDEK([γGlu-Palmitoyl])AAKDFIEWLEEE-NH2)
